Measurements as given in ChEMBL document CHEMBL1201862, “PubChem BioAssay data set” (2004).
Counter-ions that a name gives are not always drawn.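 Cultured in 96-well plates, cells were exposed to test compound for 48 hours across five concentrations. The concentration for 50% growth inhibition is given as GI50.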 Active and inactive are the calls of the source. No stated cut-off is given here; in the data, active = GI50 up to about 1.1 µM and inactive = higher.

What was measured:
Test in all cases: NCI anticancer screen, dose series, 48 h
[1] = tested on: SF-539
[2] = tested on: NCI-H226
[3] = tested on: NCI-H522
[4] = tested on: SN12C
[5] = tested on: HCT-116
[6] = tested on: NCI/ADR-RES
[7] = tested on: EKVX
[8] = tested on: HL-60
[9] = tested on: UO-31
[10] = tested on: SK-MEL-28
[11] = tested on: OVCAR-5
[12] = tested on: U-251
[13] = tested on: MOLT-4
[14] = tested on: IGROV-1
[15] = tested on: SNB-78
[16] = tested on: M14
[17] = tested on: Hs-578T
[18] = tested on: MDA-MB-435
[19] = tested on: MDA-MB-231
[20] = tested on: DU-145

Structure (SMILES) | GI50 [1] | GI50 [2] | GI50 [3] | GI50 [4] | GI50 [5] | GI50 [6] | GI50 [7] | GI50 [8] | GI50 [9] | GI50 [10] | GI50 [11] | GI50 [12] | GI50 [13] | GI50 [14] | GI50 [15] | GI50 [16] | GI50 [17] | GI50 [18] | GI50 [19] | GI50 [20]
C=CCNC(=O)C(C)C1CCC2(C)C=CC(=O)C(C)=C2C1O (configuration not stated) | > 100 µM (inactive) | > 100 µM (inactive) | > 100 µM (inactive) | > 100 µM (inactive) | > 100 µM (inactive) | > 100 µM (inactive) | > 100 µM (inactive) | > 100 µM (inactive) | > 100 µM (inactive) | > 100 µM (inactive) | > 100 µM (inactive) | > 100 µM (inactive) | > 100 µM (inactive) | > 100 µM (inactive) | > 25.8 µM (inactive) | – | – | – | – | –
O=C1c2c(O)cccc2-c2nn(CCNCCO)c3ccc(NCCNCCO)c1c23 [LOSOXANTRONE HYDROCHLORIDE] | 0.0288 µM (active) | < 0.0171 µM (active) | 0.0228 µM (active) | 0.0182 µM (active) | 0.043 µM (active) | 8.28 µM (inactive) | 0.867 µM (active) | < 0.01 µM (active) | 1.52 µM (inactive) | 0.447 µM (active) | 0.29 µM (active) | 0.0122 µM (active) | < 0.01 µM (active) | 0.337 µM (active) | 0.634 µM (active) | 0.244 µM (active) | 0.0791 µM (active) | 0.53 µM (active) | 0.185 µM (active) | < 0.01 µM (active)
Cc1nc(-n2nc(-c3ccccc3)cc2-c2ccccc2)sc1C(=O)/C=C/c1ccc(Cl)c(Cl)c1 | 18.3 µM (inactive) | 15.3 µM (inactive) | 10 µM (inactive) | 15.7 µM (inactive) | 26.7 µM (inactive) | – | 27 µM (inactive) | 14 µM (inactive) | 10.6 µM (inactive) | 31.3 µM (inactive) | 18.8 µM (inactive) | 11.6 µM (inactive) | 11.8 µM (inactive) | 12.1 µM (inactive) | 15.6 µM (inactive) | 17.6 µM (inactive) | – | – | – | –
C/C=C1/C(=Cc2[nH]c(C=c3[nH]/c(=C/C4=NC(=O)C(CC)=C4C)c(C)c3CCC(=O)O)c(CCC(=O)O)c2C)NC(=O)C1C (configuration not stated) | 6.4 µM (inactive) | 2.59 µM (inactive) | 6.19 µM (inactive) | 3.3 µM (inactive) | 2.13 µM (inactive) | – | 30.6 µM (inactive) | 7.59 µM (inactive) | 8.24 µM (inactive) | 47.6 µM (inactive) | 8.49 µM (inactive) | 7.48 µM (inactive) | 1.95 µM (inactive) | 3.38 µM (inactive) | 11.5 µM (inactive) | 1.87 µM (inactive) | – | – | – | –
O=c1ccc2ccccc2o1 [COUMARIN] | > 100 µM (inactive) | > 100 µM (inactive) | > 100 µM (inactive) | > 100 µM (inactive) | > 100 µM (inactive) | – | > 100 µM (inactive) | > 100 µM (inactive) | > 100 µM (inactive) | > 100 µM (inactive) | > 100 µM (inactive) | > 100 µM (inactive) | > 100 µM (inactive) | > 100 µM (inactive) | > 100 µM (inactive) | > 100 µM (inactive) | – | – | – | –
CCOC(=O)/C(C#N)=C(N)/C(=N\Nc1cccc(C(F)(F)F)c1)C(=O)OCC | > 100 µM (inactive) | > 100 µM (inactive) | > 100 µM (inactive) | > 100 µM (inactive) | > 100 µM (inactive) | – | > 100 µM (inactive) | 75.9 µM (inactive) | > 100 µM (inactive) | > 100 µM (inactive) | > 100 µM (inactive) | > 100 µM (inactive) | > 100 µM (inactive) | > 100 µM (inactive) | > 100 µM (inactive) | > 100 µM (inactive) | – | – | – | –
c1c(N2CCOCC2)s[s+]c1N1CCOCC1 | > 100 µM (inactive) | 13.3 µM (inactive) | > 100 µM (inactive) | > 100 µM (inactive) | > 100 µM (inactive) | – | > 100 µM (inactive) | > 100 µM (inactive) | > 100 µM (inactive) | > 100 µM (inactive) | > 100 µM (inactive) | > 100 µM (inactive) | > 100 µM (inactive) | > 100 µM (inactive) | > 100 µM (inactive) | > 100 µM (inactive) | – | – | – | –
COc1ccc(C(=O)C(C(=O)C(=O)NCCCNC(=O)C(=O)C(C(=O)c2ccc(OC)cc2)c2ccc(OC)cc2)c2ccc(OC)cc2)cc1 (configuration not stated) | > 100 µM (inactive) | > 100 µM (inactive) | > 100 µM (inactive) | – | > 100 µM (inactive) | – | > 100 µM (inactive) | > 100 µM (inactive) | > 100 µM (inactive) | > 100 µM (inactive) | > 100 µM (inactive) | > 100 µM (inactive) | > 100 µM (inactive) | > 100 µM (inactive) | > 100 µM (inactive) | > 100 µM (inactive) | – | – | – | –
Cc1ccc(NC(=O)/C(CC(=O)c2c[n+]([O-])c3ccccc3[n+]2[O-])=N\NC(=O)C[n+]2ccccc2)cc1 | > 100 µM (inactive) | > 100 µM (inactive) | > 100 µM (inactive) | > 100 µM (inactive) | > 100 µM (inactive) | – | > 100 µM (inactive) | 35 µM (inactive) | > 100 µM (inactive) | > 100 µM (inactive) | > 100 µM (inactive) | > 100 µM (inactive) | > 100 µM (inactive) | > 100 µM (inactive) | > 100 µM (inactive) | > 100 µM (inactive) | – | – | – | –
CCOC(=O)Nc1ccc(S(=O)(=O)OC)cc1.CCOC(=O)Nc1ccc(S(=O)(=O)OC)cc1.NC(=O)NCCO | 21.2 µM (inactive) | > 50 µM (inactive) | > 50 µM (inactive) | > 50 µM (inactive) | 21.3 µM (inactive) | – | > 50 µM (inactive) | 16.7 µM (inactive) | > 50 µM (inactive) | > 50 µM (inactive) | > 50 µM (inactive) | 23 µM (inactive) | > 50 µM (inactive) | > 50 µM (inactive) | > 50 µM (inactive) | 42.4 µM (inactive) | – | – | – | –
CS(=O)(=O)OCCN(CCOS(C)(=O)=O)c1ccc(/C=N/c2ccc(-c3csc(COc4ccccc4)n3)cc2)cc1 | 2.86 µM (inactive) | 2.66 µM (inactive) | 0.295 µM (active) | 5.14 µM (inactive) | 12.6 µM (inactive) | 10.1 µM (inactive) | 5.5 µM (inactive) | 0.817 µM (active) | 0.65 µM (active) | 12.7 µM (inactive) | 3.73 µM (inactive) | 7.24 µM (inactive) | 0.271 µM (active) | 12.6 µM (inactive) | 18.7 µM (inactive) | 5.6 µM (inactive) | 15.1 µM (inactive) | 12.4 µM (inactive) | 17 µM (inactive) | 1.64 µM (inactive)
O=P(c1ccccc1)(c1ccccc1)C1CC=C(c2ccccc2)C2(CCCC2)C1 (configuration not stated) | > 100 µM (inactive) | 44.9 µM (inactive) | 8.79 µM (inactive) | 59.7 µM (inactive) | 45 µM (inactive) | – | > 100 µM (inactive) | 21.6 µM (inactive) | 25.3 µM (inactive) | 40.1 µM (inactive) | 29.7 µM (inactive) | 94 µM (inactive) | 21.4 µM (inactive) | 42.7 µM (inactive) | > 100 µM (inactive) | 43.3 µM (inactive) | – | – | – | –
COC(=O)C1CC2(c3ccccc3)C(=O)c3ccccc3N2O1 (configuration not stated) | 67 µM (inactive) | > 100 µM (inactive) | 15.5 µM (inactive) | 43 µM (inactive) | 46.9 µM (inactive) | – | > 100 µM (inactive) | 28.9 µM (inactive) | – | 91.8 µM (inactive) | > 100 µM (inactive) | 69.2 µM (inactive) | 22.1 µM (inactive) | > 100 µM (inactive) | > 100 µM (inactive) | > 100 µM (inactive) | – | – | – | –
Cc1ccc(/C=C/C(=O)c2ccc([N+](=O)[O-])cc2)cc1 | > 100 µM (inactive) | > 100 µM (inactive) | 56.4 µM (inactive) | > 100 µM (inactive) | > 100 µM (inactive) | – | > 100 µM (inactive) | 90.6 µM (inactive) | 59.4 µM (inactive) | > 100 µM (inactive) | > 100 µM (inactive) | 21.2 µM (inactive) | > 100 µM (inactive) | > 100 µM (inactive) | > 100 µM (inactive) | > 100 µM (inactive) | – | – | – | –
CN1C(=N\S(=O)(=O)c2ccc(Cl)cc2)/C(=N/N=P(c2ccccc2)(c2ccccc2)c2ccccc2)c2ccccc21 | > 100 µM (inactive) | 73.3 µM (inactive) | > 100 µM (inactive) | > 100 µM (inactive) | > 100 µM (inactive) | – | > 100 µM (inactive) | – | > 100 µM (inactive) | > 100 µM (inactive) | > 100 µM (inactive) | > 100 µM (inactive) | > 100 µM (inactive) | > 100 µM (inactive) | > 100 µM (inactive) | > 100 µM (inactive) | – | – | – | –
